Values after ≈ are worked out from the molar mass of the structure shown.
Experiments:
Assay type in all cases: in vivo
[1] = test system: common spider mite (Tetranychus urticae); assay: Tetranychus urticae test (OP-resistant; sprayed cucumbers); settings: single active substance
Procedure: Tetranychus urticae Test (OP-Resistant)
(§1) Solvent: 7 parts by weight of dimethylformamide
(§2) Emulsifier: 2 parts by weight of alkylaryl polyglycol ether
(§3) To prepare a suitable preparation of active substance, 1 part by weight of active substance is mixed with the stated amounts of solvent and emulsifier, and the concentrate is diluted with water to the desired concentrations.
Cucumbers (Cucumis sativus) which are severely infected with the common spider mite (Tetranychus urticae) are sprayed with the active substance preparation at the desired concentration.
(§4) After the desired period of time, the destruction is determined in %. In this context, 100% means that all spider mites have been destroyed; 0% means that no spider mites have been destroyed.

[2] = test system: fruit tree spider mite (Panonychus ulmi); assay: Panonychus ulmi test (sprayed plum cuttings); settings: single active substance
Procedure: as §1, §2, §3
Plum cuttings (Prunus domestica) which are infected with a mixed population of the fruit tree spider mite (Panonychus ulmi) are sprayed with the active substance preparation at the desired concentration.
as §4

[3] = test system: citrus spider mite (Panonychus citri); assay: Panonychus citri test (sprayed citrus plants); settings: single active substance; for LC50: Panonychus citri, in Citrus x limon, 24 h, after 1 d, read-out: LC 50 in mg/l after 1d; for LC 50 in mg/l after 1d: Citrus limon
Procedure: as §1, §2, §3
Citrus plants (Citrus limon) which are infected with a mixed population of the citrus spider mite (Panonychus citri) are sprayed with the active substance preparation at the desired concentration.
as §4

For `COc1ccc(-c2ccccc2)cc1NNC(=O)OC(C)C` [Bifenazate (II), bifenazate], the “Destruction in % after 6d” value ([1]; 0.16 ppm, cucumbers) was 15% and the “Destruction in % after 2d” value ([2]; 0.8 ppm, plum cuttings) was 10%.

`CC(C)(C)c1ccc(CCOc2ncnc3ccccc23)cc1` [Fenazaquin (V), fenazaquin] was tested, and the LC50 [3] was 10.2 mg/L (≈ 33.3 µM), the “Destruction in % after 6d” value ([1]; 0.16 ppm, cucumbers) was 0% and the “Destruction in % after 2d” value ([2]; 0.8 ppm, plum cuttings) was 0%.

In the case of `CC(C)(C)c1ccc(CSc2cnn(C(C)(C)C)c(=O)c2Cl)cc1` [Pyridaben (IV), pyridaben], the “LC 50 in mg/l after 1d” value [3] is reported as 31.41 mg/L (≈ 86.1 µM).

`CCC(C)(C)C(=O)OC1=C(c2ccc(Cl)cc2Cl)C(=O)OC12CCCCC2` [Spirodiclofen (I), Spirodiclofen] was tested, and the LC50 [3] was 12.3 mg/L (≈ 29.8 µM), the “Destruction in % after 6d” value ([1]; 0.032 ppm) was 15% and the “Destruction in % after 6d” value ([1]; 0.16 ppm, cucumbers) was 25%. The “Destruction in % after 2d” value ([2]; 0.8 ppm, plum cuttings) was 5% and the “Destruction in % after 2d” value ([2]; 4 ppm) was 15%.

With abamectin [Abamectin (VI)] the “LC 50 in mg/l after 1d” value [3] was 1.0054 mg/L and the “Destruction in % after 2d” value ([2]; 0.16 ppm) was 0%.
